Test results from patent US6897319B2, “Useful aroyl pyrrole heteroaryl methanones and methanols” (Ortho-McNeil Pharmaceutical, Inc., priority 2001, dated 2005).

Columns and labels:
[1] = tested on: voltage-gated sodium channels; test: Fluorometric membrane potential assay in SK-N-SH cells (veratridine stimulus, FLIPR); assay type: cell-based; settings: 10 μM compound, 5 μM veratridine
Experimental: Screening Assay for Voltage-Gated Sodium Channel Antagonists Fluorometric Membrane Potential Assay
SK-N-SH neuroblastoma cells were maintained in a propagation medium containing modified Eagle's medium and 10% (v/v) fetal bovine serum and were incubated at 37° C. in a 5% CO2 atmosphere. Only cells with fewer than 20 passages were used in each assay. All drugs were prepared in DMSO, and the final concentration of solvent was less than 0.1% (v/v). Veratridine, a toxin that selectively promotes persistent activation of voltage-gated sodium channels, served as the stimulus. 24 hr prior to testing, 1×10^5 cells/well were plated into 96-well plates specifically designed for use in a fluorescent imaging plate reader (FLIPR) (Molecular Devices, Sunnyvale, Calif.)
Prior to screening, monolayers of cells were loaded with 100 μL/well of a proprietary voltage-sensitive dye (Molecular Devices, Sunnyvale, Calif.) for 30 min at 37° C. After this incubation period, the cells were stimulated with 5 μM veratridine in the presence or absence of investigational compounds (prepared at a final concentration of 10 μM in DMSO). A sample containing 5 μM veratridine and 10 μM tetrodotoxin accounted for nonspecific activity. The fluorescence was monitored by the FLIPR (Molecular Devices) from 10 sec prior to drug addition (50 μL) to 170 sec after drug addition at 25° C. During sodium channel activation, the cells depolarize and the dye associates with cell membranes, resulting in increased fluorescence.

[2] = tested on: mechanical allodynia after L5 spinal nerve ligation; test: Chung Model (spinal nerve ligation) antiallodynic effect; assay type: in vivo; settings: po; rat, orally administered
Description: Procedure for Testing Antiallodynic Effect
The procedure used to detect the antiallodynic effect of a compound of the present invention for which there is a good correlation with human efficacy for the treatment of pain is the procedure for the measurement of allodynia found in the Chung Model (Kim S. H. and Chung J. M., An Experimental Model for Peripheral Neuropathy Produced by Segmental Spinal Nerve Ligation in the Rat, Pain, 1992, 50, 355-363). The antiallodynic effect of the composition of the present invention in the Chung Model is expressed in % MPE (Maximum Possible Effect).
Male Sprague-Dawley rats, weighing approximately 200 g each were anesthetized with isoflurane. The spinal nerve at the level of L5 was exposed through an incision just left of the dorsal midline and tightly ligated with 6-0 silk. At various times after surgery, animals were tested for mechanical allodynia with von Frey hairs (monofilaments which are calibrated to bend under a certain amount of pressure, ranging from 0.41 to 15.1 g). In order to calculate a paw withdrawal threshold (PWT), tactile allodynia was measured by recording the pressure at which the affected paw was withdrawn from graded stimuli according to the procedure of S. R. Chaplan, J. W. Pogrel, T. L. Yaksh, Role of Voltage-Dependent Calcium Channel Subtypes in Experimental Tactile Allodynia, J. Pharmacol. Exp. Ther., 1994, 269, 1117-1123. Normal rats can withstand at least 15 g of pressure without responding. Operated rats, however, can respond to as little as 0.25 g of pressure. The surgery was deemed successful if the animal responded with a PWT of less than 4 g of pressure applied to the affected paw. […] The PWT was used to calculate the % maximal possible effect (% MPE) according to the formula: %MPE=100×[(PWT−CT)/(CO−CT)]; wherein PWT is defined as Paw Withdrawal Threshold, CT is Control Threshold, and CO is Cut Off (defined as 15 g).
The sham operation consisted of a similar surgery; the spinal nerve was visualized without being ligated.
Compounds selected from Formula (I) and Formula (II) were tested for activity in treating or modulating neuropathic pain by being dissolved or suspended in either water or hydroxypropyl methylcellulose, respectively. Postoperative animals between 14 to 42 days were fasted overnight prior to dosing. Animals were orally dosed and dosage volumes were calculated on a 4 mL/kg basis.

Cn1cc(C(=O)c2ccncc2)cc1C(=O)c1ccc(Cl)cc1 [Cpd 1, [5-(4-Chlorobenzoyl)-1-methyl-1H-pyrrol-3-yl]pyridin-4-ylmethanone]
% FI at 10 μM (% fluorescence inhibition) [1]: 32%
ED50 [2]: 22 mg/kg
